Test results published in ChEMBL document CHEMBL3233002, “Discovery of potent Keap1-Nrf2 protein-protein interaction inhibitor based on molecular binding determinants analysis” (J Med Chem, 2014).

Key:
[1] = biological target: Kelch-like ECH-associated protein 1 (Homo sapiens) (UniProt Q14145); test: Inhibition of Keap1-Nrf2 interaction in human HepG2-ARE-C8 cells assessed as activation of Nrf2-ARE luciferase activity at 20 uM after 12 hrs relative to control; type: cell-based
[2] = biological target: Kelch-like ECH-associated protein 1 (Homo sapiens) (UniProt Q14145); test: Inhibition of Keap1-Nrf2 interaction in human HepG2-ARE-C8 cells assessed as activation of Nrf2-ARE luciferase activity at 40 uM after 12 hrs relative to control; type: cell-based
[3] = biological target: Kelch-like ECH-associated protein 1 (Homo sapiens) (UniProt Q14145); test: Inhibition of Keap1-Nrf2 interaction in human HepG2-ARE-C8 cells assessed as activation of Nrf2-ARE luciferase activity at 80 uM after 12 hrs relative to control; type: cell-based
HCT-116 = test: Cytotoxicity against human HCT116 cells at 10 uM; type: cell-based; conditions: hct-116, 10 µM
[4] = Dissociation constant, pKa of the compound; type: physicochemical
[5] = Partition coefficient, log D of the compound at pH 7.4; type: physicochemical; conditions: octanol/water

Kelch-like ECH-associated protein 1 (Homo sapiens), sequence (Q14145 whole entry): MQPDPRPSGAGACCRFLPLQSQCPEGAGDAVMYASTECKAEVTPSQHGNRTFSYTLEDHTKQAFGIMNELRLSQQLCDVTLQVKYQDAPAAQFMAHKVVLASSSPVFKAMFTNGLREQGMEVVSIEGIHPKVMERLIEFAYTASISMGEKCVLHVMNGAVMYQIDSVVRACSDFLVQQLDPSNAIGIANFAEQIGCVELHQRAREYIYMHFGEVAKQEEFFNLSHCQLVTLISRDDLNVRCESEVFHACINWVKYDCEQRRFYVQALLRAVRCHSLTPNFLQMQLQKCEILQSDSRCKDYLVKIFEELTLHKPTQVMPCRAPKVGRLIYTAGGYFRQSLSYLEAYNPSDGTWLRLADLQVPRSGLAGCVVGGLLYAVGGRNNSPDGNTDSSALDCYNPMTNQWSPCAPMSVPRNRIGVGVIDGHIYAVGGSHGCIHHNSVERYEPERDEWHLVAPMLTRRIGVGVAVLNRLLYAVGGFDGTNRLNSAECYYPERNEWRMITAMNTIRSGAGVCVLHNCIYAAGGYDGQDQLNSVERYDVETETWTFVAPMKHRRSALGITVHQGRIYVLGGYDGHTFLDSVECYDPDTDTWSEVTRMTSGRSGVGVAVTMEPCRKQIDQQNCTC

SMILES	fold change (FC) [1]	fold change (FC) [2]	fold change (FC) [3]	Activity (HCT-116)	pKa [4]	logD [5]
CC(C)(C)c1cc(O)ccc1O	2.22	3.81	6.21			
COc1ccc(S(=O)(=O)N(CC(=O)O)c2ccc(N(CC(=O)O)S(=O)(=O)c3ccc(OC)cc3)c3ccccc23)cc1				Non-toxic	4.62	1.71
C[S+]([O-])CCCCN=C=S (configuration not stated)	18.1					
